# In patent publication US9993494B2, “Compositions and methods for treating fibrotic disease” (eFFECTOR Therapeutics, Inc., priority 2014, dated 2018):
# System: normal human lung fibroblasts
# Test: Ribosomal profiling: translational efficiency in TGFβ-treated fibroblasts
# Format: cell-based
# Details: TGFβ-treated fibroblasts
# Summary of the method: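 Cells lysed on ice after a cold PBS wash containing cycloheximide. Ribosome-protected fragments and total mRNA were prepared with the ARTseq kit and sequenced by RNA-Seq. Reads were trimmed, mapped to the human genome and counted uniquely over coding regions per gene, with low-count genes excluded before differential translational-efficiency analysis.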
smiles,measurement,setting,value
"Cc1ccc(=O)n(-c2ccccc2)c1 [pirfenidone, 5-methyl-1-phenylpyridin-2-one]",effect in renormalizing the translational profile of the gene,gene RPS6KA5 (ENSG00000100784),− (− = <0.9)
same,effect in renormalizing the translational profile of the gene,gene RPS7 (ENSG00000171863),− (− = <0.9)
same,effect in renormalizing the translational profile of the gene,gene RPS8 (ENSG00000142937),+ (+ = 0.9 to 1.5)
same,effect in renormalizing the translational profile of the gene,gene RPS9 (ENSG00000170889),+ (+ = 0.9 to 1.5)
same,effect in renormalizing the translational profile of the gene,gene RPS10 (ENSG00000124614),+ (+ = 0.9 to 1.5)
same,effect in renormalizing the translational profile of the gene,gene RPS11 (ENSG00000142534),− (− = <0.9)
same,effect in renormalizing the translational profile of the gene,gene RPS12 (ENSG00000112306),− (− = <0.9)
same,effect in renormalizing the translational profile of the gene,gene RPS13 (ENSG00000110700),− (− = <0.9)
same,effect in renormalizing the translational profile of the gene,gene RPS14 (ENSG00000164587),− (− = <0.9)
same,effect in renormalizing the translational profile of the gene,gene RPS15 (ENSG00000115268),+ (+ = 0.9 to 1.5)
same,effect in renormalizing the translational profile of the gene,gene RPS15A (ENSG00000134419),+ (+ = 0.9 to 1.5)
same,effect in renormalizing the translational profile of the gene,gene RPS16 (ENSG00000105193),+ (+ = 0.9 to 1.5)
same,effect in renormalizing the translational profile of the gene,gene RPS18 (ENSG00000231500),+ (+ = 0.9 to 1.5)
same,effect in renormalizing the translational profile of the gene,gene RPS19 (ENSG00000105372),+ (+ = 0.9 to 1.5)
same,effect in renormalizing the translational profile of the gene,gene RPS20 (ENSG00000008988),− (− = <0.9)
same,effect in renormalizing the translational profile of the gene,gene RPS21 (ENSG00000171858),− (− = <0.9)
same,effect in renormalizing the translational profile of the gene,gene RPS23 (ENSG00000186468),− (− = <0.9)
same,effect in renormalizing the translational profile of the gene,gene RPS24 (ENSG00000138326),− (− = <0.9)
same,effect in renormalizing the translational profile of the gene,gene RPS25 (ENSG00000118181),− (− = <0.9)
same,effect in renormalizing the translational profile of the gene,gene RPS26 (ENSG00000197728),− (− = <0.9)
same,effect in renormalizing the translational profile of the gene,gene RPS27 (ENSG00000177954),+ (+ = 0.9 to 1.5)
same,effect in renormalizing the translational profile of the gene,gene RPS27A (ENSG00000143947),− (− = <0.9)
same,effect in renormalizing the translational profile of the gene,gene RPS28 (ENSG00000233927),+ (+ = 0.9 to 1.5)
same,effect in renormalizing the translational profile of the gene,gene RPS29 (ENSG00000213741),+ (+ = 0.9 to 1.5)
same,effect in renormalizing the translational profile of the gene,gene RPSA (ENSG00000168028),− (− = <0.9)
same,effect in renormalizing the translational profile of the gene,gene RTN2 (ENSG00000125744),− (− = <0.9)
same,effect in renormalizing the translational profile of the gene,gene SEMA3A (ENSG00000075213),− (− = <0.9)
same,effect in renormalizing the translational profile of the gene,gene SGIP1 (ENSG00000118473),− (− = <0.9)
same,effect in renormalizing the translational profile of the gene,gene SH3BGR (ENSG00000185437),− (− = <0.9)
same,effect in renormalizing the translational profile of the gene,gene SHC3 (ENSG00000148082),− (− = <0.9)
same,effect in renormalizing the translational profile of the gene,gene SLC2A12 (ENSG00000146411),− (− = <0.9)
same,effect in renormalizing the translational profile of the gene,gene SLC7A7 (ENSG00000155465),− (− = <0.9)
same,effect in renormalizing the translational profile of the gene,gene SLC15A3 (ENSG00000110446),− (− = <0.9)
same,effect in renormalizing the translational profile of the gene,gene SLC25A6 (ENSG00000169100),+ (+ = 0.9 to 1.5)
same,effect in renormalizing the translational profile of the gene,gene SLC40A1 (ENSG00000138449),++ (++ = 1.5 to 2.0)
same,effect in renormalizing the translational profile of the gene,gene SMO (ENSG00000128602),− (− = <0.9)
same,effect in renormalizing the translational profile of the gene,gene SNRPA (ENSG00000077312),− (− = <0.9)
same,effect in renormalizing the translational profile of the gene,gene SOX5 (ENSG00000134532),− (− = <0.9)
same,effect in renormalizing the translational profile of the gene,gene SOX6 (ENSG00000110693),+ (+ = 0.9 to 1.5)
same,effect in renormalizing the translational profile of the gene,gene SPATA6 (ENSG00000132122),+ (+ = 0.9 to 1.5)
same,effect in renormalizing the translational profile of the gene,gene STAMBPL1 (ENSG00000138134),+ (+ = 0.9 to 1.5)
same,effect in renormalizing the translational profile of the gene,gene STS (ENSG00000101846),+ (+ = 0.9 to 1.5)
same,effect in renormalizing the translational profile of the gene,gene SYNE2 (ENSG00000054654),− (− = <0.9)
same,effect in renormalizing the translational profile of the gene,gene TAF1D (ENSG00000166012),+ (+ = 0.9 to 1.5)
same,effect in renormalizing the translational profile of the gene,gene TDG (ENSG00000139372),− (− = <0.9)
same,effect in renormalizing the translational profile of the gene,gene TEN1 (ENSG00000257949),− (− = <0.9)
same,effect in renormalizing the translational profile of the gene,gene TET2 (ENSG00000168769),− (− = <0.9)
same,effect in renormalizing the translational profile of the gene,gene TET3 (ENSG00000187605),− (− = <0.9)
same,effect in renormalizing the translational profile of the gene,gene TGFBI (ENSG00000120708),− (− = <0.9)
same,effect in renormalizing the translational profile of the gene,gene THBS3 (ENSG00000169231),+ (+ = 0.9 to 1.5)
same,effect in renormalizing the translational profile of the gene,gene THG1L (ENSG00000113272),− (− = <0.9)
same,effect in renormalizing the translational profile of the gene,gene TIMM9 (ENSG00000100575),− (− = <0.9)
same,effect in renormalizing the translational profile of the gene,gene TKT (ENSG00000163931),+ (+ = 0.9 to 1.5)
same,effect in renormalizing the translational profile of the gene,gene TMTC1 (ENSG00000133687),− (− = <0.9)
same,effect in renormalizing the translational profile of the gene,gene TOMM7 (ENSG00000196683),− (− = <0.9)
same,effect in renormalizing the translational profile of the gene,gene TOP2A (ENSG00000131747),− (− = <0.9)
same,effect in renormalizing the translational profile of the gene,gene TPGS1 (ENSG00000141933),− (− = <0.9)
same,effect in renormalizing the translational profile of the gene,gene TPM2 (ENSG00000198467),− (− = <0.9)
same,effect in renormalizing the translational profile of the gene,gene TPT1 (ENSG00000133112),− (− = <0.9)
same,effect in renormalizing the translational profile of the gene,gene TRERF1 (ENSG00000124496),− (− = <0.9)
same,effect in renormalizing the translational profile of the gene,gene UBA52 (ENSG00000221983),− (− = <0.9)
same,effect in renormalizing the translational profile of the gene,gene UQCRB (ENSG00000156467),− (− = <0.9)
same,effect in renormalizing the translational profile of the gene,gene UTRN (ENSG00000152818),− (− = <0.9)
same,effect in renormalizing the translational profile of the gene,gene VIM (ENSG00000026025),− (− = <0.9)
same,effect in renormalizing the translational profile of the gene,gene ZNF581 (ENSG00000171425),− (− = <0.9)
same,effect in renormalizing the translational profile of the gene,gene ZNF608 (ENSG00000168916),− (− = <0.9)
